Publication PMC7894426, “Influence of verapamil on the pharmacokinetics of rotundic acid in rats and its potential mechanism” (Pharmaceutical Biology, 2021)

Tests used:
[1] = Bidirectional transport across Caco-2 cell monolayer; type: in vitro ADME, human; settings: human, pH 7.4, Caco-2, 25 µM RA, without verapamil
Protocol: (§1) The qualified monolayers were used for transport studies. […] Each experiment was carried out in triplicate.

P-gp = experiment: as above; type: in vitro ADME, human; settings: human, pH 7.4, with verapamil 50 µM, Caco-2, 25 µM RA, + 50 µM verapamil
Protocol: as §1

CYP3A4 = molecular target: T1, CYP3A4 (Homo sapiens, UniProt P08684); experiment: Metabolic depletion of RA by rhCYP3A4; type: in vitro ADME
T1 construct: purchased Research Institute for Liver Disease (Shanghai) Co., Ltd
Protocol: The metabolic stability of RA was evaluated against five rhCYPs (1A2, 2C8, 2C9, 2D6 and 3A4). Incubation was taken place in 0.1 M sodium phosphate buffer (pH 7.4) containing 5 mM MgCl2, 1 mM NADPH, and 25 pM rhCYP enzyme protein at 37 °C in a total volume of 1 mL. After pre-incubated for 5 min, the reactions were started by the addition of RA methanol solution (final concentration of 2 µM). Aliquots of 50 µL incubation solution were collected from the reaction at 0, 5, 10, 20 and 30 min, and quenched with 50 µL ice-cold methanol (containing 0.5% formic acid) and 100 µL ice-cold acetonitrile containing IS (10 ng/mL). The heat-inactivated rhCYP3A4 were used as negative controls. All reactions were conducted in triplicate, followed by LC-MS/MS analysis. Results presented in percentage of drug remaining in incubation starting at 100% at time zero.

[2] = 10 min, read-out: RE (efflux ratio)
[3] = 20 min, read-out: RE (efflux ratio)
[4] = 40 min, read-out: RE (efflux ratio)
[5] = 60 min, read-out: RE (efflux ratio)

T1 sequence (P08684 whole entry): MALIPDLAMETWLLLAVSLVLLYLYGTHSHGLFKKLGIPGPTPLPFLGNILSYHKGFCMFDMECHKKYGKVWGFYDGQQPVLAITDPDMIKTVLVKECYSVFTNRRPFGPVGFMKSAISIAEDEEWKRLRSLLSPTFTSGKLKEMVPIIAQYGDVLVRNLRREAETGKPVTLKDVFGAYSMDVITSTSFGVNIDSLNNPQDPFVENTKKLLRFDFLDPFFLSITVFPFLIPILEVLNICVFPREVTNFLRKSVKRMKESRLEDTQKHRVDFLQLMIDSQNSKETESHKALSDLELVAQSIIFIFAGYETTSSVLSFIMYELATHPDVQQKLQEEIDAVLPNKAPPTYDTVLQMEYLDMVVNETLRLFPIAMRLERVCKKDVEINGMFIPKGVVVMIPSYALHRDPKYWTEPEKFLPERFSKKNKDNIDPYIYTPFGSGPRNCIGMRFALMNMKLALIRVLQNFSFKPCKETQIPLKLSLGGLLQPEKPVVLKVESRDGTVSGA

An efflux ratio at 25 µM ([1]; 10–60 min, read-out: Papp (BL→AP) relative to Papp (AP→BL)) of 2, a Papp A→B at 10 min, 25 µM ([1]; 10 min) of 0.468 ± 0.0625 ×10⁻⁶ cm/s and a Papp B→A at 10 min, 25 µM ([1]; 10 min) of 3.25 ± 0.35 ×10⁻⁶ cm/s were found for `C[C@@H]1CC[C@]2(C(=O)O)CC[C@]3(C)C(=CC[C@@H]4[C@@]5(C)CC[C@H](O)[C@@](C)(CO)[C@@H]5CC[C@]43C)[C@@H]2[C@]1(C)O` [RA, Rotundic acid] in this work. It also gave an efflux ratio at 10 min, 25 µM [1, 2] of 6.93, a Papp A→B at 20 min, 25 µM ([1]; 20 min) of 0.776 ± 0.128 ×10⁻⁶ cm/s and a Papp B→A at 20 min, 25 µM ([1]; 20 min) of 5.45 ± 0.806 ×10⁻⁶ cm/s. The efflux ratio at 20 min, 25 µM [1, 3] was 7.02, the Papp A→B at 40 min, 25 µM ([1]; 40 min) was 2.8 ± 0.467 ×10⁻⁶ cm/s and the Papp B→A at 40 min, 25 µM ([1]; 40 min) was 7.13 ± 0.36 ×10⁻⁶ cm/s. The efflux ratio at 40 min, 25 µM [1, 4] was 2.55, the Papp A→B at 60 min, 25 µM ([1]; 60 min) was 2.84 ± 0.441 ×10⁻⁶ cm/s and the Papp B→A at 60 min, 25 µM ([1]; 60 min) was 6.56 ± 0.941 ×10⁻⁶ cm/s. The efflux ratio at 60 min, 25 µM [1, 5] was 2.31, the Papp A→B at 10 min, 25 µM (P-gp; 10 min) was 1.07 ± 0.212 ×10⁻⁶ cm/s and the Papp B→A at 10 min, 25 µM (P-gp; 10 min) was 2.73 ± 0.348 ×10⁻⁶ cm/s. It also gave an efflux ratio at 10 min, 25 µM (P-gp; [2]) of 2.55, a Papp A→B at 20 min, 25 µM (P-gp; 20 min) of 2.45 ± 0.707 ×10⁻⁶ cm/s and a Papp B→A at 20 min, 25 µM (P-gp; 20 min) of 5.32 ± 0.306 ×10⁻⁶ cm/s. For the same molecule, the efflux ratio at 20 min, 25 µM (P-gp; [3]) was 2.17, the Papp A→B at 40 min, 25 µM (P-gp; 40 min) was 4.69 ± 0.945 ×10⁻⁶ cm/s and the Papp B→A at 40 min, 25 µM (P-gp; 40 min) was 5.68 ± 0.683 ×10⁻⁶ cm/s. It also gave an efflux ratio at 40 min, 25 µM (P-gp; [4]) of 1.21, a Papp A→B at 60 min, 25 µM (P-gp; 60 min) of 4.71 ± 0.524 ×10⁻⁶ cm/s and a Papp B→A at 60 min, 25 µM (P-gp; 60 min) of 5.29 ± 0.438 ×10⁻⁶ cm/s. The efflux ratio at 60 min, 25 µM (P-gp; [5]) was 1.12, the “degradation in negative control” value (CYP3A4; heat-inactivated rhCYP3A4, RA 2 µM) was “No obvious degradation” and the RA converted (CYP3A4; rhCYP3A4 25 pM, RA 2 µM, 30 min) was 88.2%.
